# According to the supplement of paper PMC13380429:
# Where a name gives a salt, the structure may show the parent alone.
# Key:
# Conditions in all cases: 72 h
# Caco-2 [1] = assay: cell viability relative to DMSO; higher = less toxic
# Calu-3 [2] = assay: as above
# HepG2 [3] = assay: as above
# Caco-2 [4] = assay: relative viability EC50 (midpoint between 100% and the lowest measured viability); higher = less toxic
# Calu-3 [5] = assay: as above
# HepG2 [6] = assay: as above
# Caco-2 [7] = assay: drug sensitivity score (DSS) for viability; higher = more toxic; extreme values may be limits of the assay
# Calu-3 [8] = assay: as above
# HepG2 [9] = assay: as above
# U2OS [10] = assay: cell viability relative to DMSO; higher = less toxic
# Vero E6 [11] = assay: as above
# U2OS [12] = assay: relative viability EC50 (midpoint between 100% and the lowest measured viability); higher = less toxic
# Vero E6 [13] = assay: as above
# U2OS [14] = assay: drug sensitivity score (DSS) for viability; higher = more toxic; extreme values may be limits of the assay
# Vero E6 [15] = assay: as above
SMILES,cell viability (Caco-2 [1]; 1 nM) [%],cell viability (Caco-2 [1]; 10 nM) [%],cell viability (Caco-2 [1]; 100 nM) [%],cell viability (Caco-2 [1]; 1000 nM) [%],cell viability (Caco-2 [1]; 10000 nM) [%],cell viability (Calu-3 [2]; 1 nM) [%],cell viability (Calu-3 [2]; 10 nM) [%],cell viability (Calu-3 [2]; 100 nM) [%],cell viability (Calu-3 [2]; 1000 nM) [%],cell viability (Calu-3 [2]; 10000 nM) [%],cell viability (HepG2 [3]; 1 nM) [%],cell viability (HepG2 [3]; 10 nM) [%],cell viability (HepG2 [3]; 100 nM) [%],cell viability (HepG2 [3]; 1000 nM) [%],cell viability (HepG2 [3]; 10000 nM) [%],relative viability EC50 (Caco-2 [4]) [µM],relative viability EC50 (Calu-3 [5]) [µM],relative viability EC50 (HepG2 [6]) [µM],drug sensitivity score (Caco-2 [7]),drug sensitivity score (Calu-3 [8]),drug sensitivity score (HepG2 [9]),cell viability (U2OS [10]; 1 nM) [%],cell viability (U2OS [10]; 10 nM) [%],cell viability (U2OS [10]; 100 nM) [%],cell viability (U2OS [10]; 1000 nM) [%],cell viability (U2OS [10]; 10000 nM) [%],cell viability (Vero E6 [11]; 1 nM) [%],cell viability (Vero E6 [11]; 10 nM) [%],cell viability (Vero E6 [11]; 100 nM) [%],cell viability (Vero E6 [11]; 1000 nM) [%],cell viability (Vero E6 [11]; 10000 nM) [%],relative viability EC50 (U2OS [12]) [µM],relative viability EC50 (Vero E6 [13]) [µM],drug sensitivity score (U2OS [14]),drug sensitivity score (Vero E6 [15])
CCCCCN(C)CCC(O)(P(=O)(O)O)P(=O)(O)O [ibandronate],97,111,106,106,94.5,96.4,111,96,106,107,111,98,112,106,117,> 10,> 10,> 10,0,0,0,–,–,–,–,–,–,–,–,–,–,–,–,–,–
CC(=O)CCCCn1c(=O)c2c(ncn2C)n(C)c1=O [pentoxifylline],98.1,115,97,114,89.1,99.7,95,104,95.8,98.1,88.1,98.5,110,94.3,106,> 10,> 10,> 10,0,0,0,101,96.1,102,94.2,100,104,110,108,108,99.2,> 10,> 10,0,0
O=C1CC[C@@](c2ccccc2)(C2CCN(Cc3ccc(I)cc3)CC2)C(=O)N1 [iododexetimide],89,104,98.1,97.7,93.9,97.8,110,102,107,104,107,96.4,92.5,87.5,83.6,> 10,> 10,> 10,0,0,1.4,98.8,95.5,94.3,100,90.4,98.7,100,102,100,93,> 10,> 10,0,0
CCOC(=O)NNc1nncc2ccccc12 [todralazine],90.4,111,84.2,94.4,117,84.4,109,101,110,103,79.3,97.3,125,112,97.3,> 10,> 10,> 10,0,0,0,98.6,100,97.1,102,105,101,88.3,97.3,91.5,99.4,> 10,> 10,0,0
O=C1C2CC=CCC2C(=O)N1SC(Cl)(Cl)Cl (stereo not drawn) [captan],102,102,101,98.6,88.9,99.9,99.6,102,106,99.4,101,93.1,85.8,86.3,82.1,> 10,> 10,> 10,0,0,3.1,105,100,105,96.1,92.1,–,–,–,–,–,> 10,–,0,–
C[C@@H]1CC[C@@]2(OC1)O[C@H]1C[C@H]3[C@@H]4CC=C5C[C@@H](O[C@@H]6O[C@H](CO)[C@@H](O[C@@H]7O[C@@H](C)[C@H](O)[C@@H](O)[C@H]7O)[C@H](O)[C@H]6O[C@@H]6O[C@@H](C)[C@H](O)[C@@H](O)[C@H]6O)CC[C@]5(C)[C@H]4CC[C@]3(C)[C@H]1[C@@H]2C [dioscin],97.9,92.6,95.2,75.9,2.3,96.7,89.7,97.9,79.3,2.9,96.8,97.5,90.1,76.2,-0.2,1.56,1.68,1.59,9.1,8.7,9.2,–,–,–,–,–,97,103,98.4,71.1,0.9,–,1.42,–,9.7
CN1C(C)(C)CCCC1(C)C [pempidine],102,89.1,95.1,99.5,109,114,105,98.3,107,110,96,103,98.1,105,84.7,> 10,> 10,> 10,0,0,0.1,–,–,–,–,–,97.4,100,95.1,95.7,94.4,–,> 10,–,0
CC(=O)Nc1ccc(C(=O)O)cc1 [acedoben],88.6,100,95.6,86.4,109,101,99.4,96.7,100,108,114,110,107,96.8,104,> 10,> 10,> 10,0,0,0,97.4,104,97.3,98,102,–,–,–,–,–,> 10,–,0,–
N=C(N)Nc1ccc(Cl)cc1 [4-chlorophenylguanidine],103,100,97,95.1,95.6,93,89.4,94.6,91.7,102,99.6,99.2,107,115,93.2,> 10,> 10,> 10,0,0,0,102,95.9,99.7,96.5,101,–,–,–,–,–,> 10,–,0,–
C=CC[N@@+]12CC[C@@]34c5ccccc5N5/C=C6/[C@H]7C[C@H]8[C@@]9(CC[N@@+]8(CC=C)C/C7=C/CO)c7ccccc7N(/C=C(/[C@@H](C[C@@H]31)/C(=C\CO)C2)[C@H]54)[C@@H]69 [alcuronium],94.9,99.9,99.4,102,107,97.8,103,91.2,90.8,87.8,106,107,98.2,102,103,> 10,> 10,> 10,0,1,0,102,99,101,99.7,103,–,–,–,–,–,> 10,–,0,–
C[C@]12CC[C@@H]3c4ccc(O)cc4CC[C@H]3[C@@H]1CC[C@@H]2OC(=O)CCC1CCCC1 [estradiol-cypionate],99.9,106,85.4,97.2,90,82,90.4,103,93,102,103,96.5,105,95.8,98.8,> 10,> 10,> 10,0,0,0,99.6,104,99.2,100,96.7,–,–,–,–,–,> 10,–,0,–
Nc1nc(NC2CC2)c2ncn([C@H]3C=C[C@@H](CO)C3)c2n1 [ABACAVIR SULFATE],102,104,94.3,98.4,95.1,89.4,96.3,97.7,100,97.1,101,95.2,97.7,90.3,96,> 10,> 10,> 10,0,0,0,99.9,102,97.1,106,99.7,–,–,–,–,–,> 10,–,0,–
O=C1NN(C(=O)Nc2ccc(Br)cc2)[C@@H](c2ccccc2)[C@@H]1c1ccccc1,103,98.8,100,98.6,96.7,96.5,90.4,93.8,91.2,86,104,89.3,91.1,106,89.1,> 10,> 10,> 10,0,0.3,0,97.3,95.4,98.5,94.8,101,–,–,–,–,–,> 10,–,0,–
Oc1ccc(Nc2nc(-c3ccc(Cl)cc3)cs2)cc1 [SKI-II],100,98.1,104,99.9,90,103,96.2,97.8,90.5,85.6,90.8,68.7,106,81.3,98,> 10,> 10,> 10,0,0.5,0,–,–,–,–,–,102,104,99.2,107,97.5,–,> 10,–,0
O=C(/C=C/c1ccc2ccccc2n1)c1ccncc1 [PFK-015],93.3,96.3,95.8,90.6,29.7,107,105,88,97,59.2,106,89.6,110,85,0.1,2.09,–,1.99,5.5,2.5,8,93,94.8,95.4,94,0,101,94.9,98,94.1,4.2,2.69,2.68,6.4,6.2
CCn1cc(C(=O)O)c(=O)c2cnc(N3CCCC3)nc21 [piromidic-acid],103,90.3,97.6,97.1,93.7,101,74.8,95.1,87,98.6,93,104,96.9,103,99.3,> 10,> 10,> 10,0,0,0,99.8,98,100,99.1,102,–,–,–,–,–,> 10,–,0,–
